# Tested on: human lung cancer NCI-H1975 xenografts
# Test: Therapeutic effect in vivo on NCI-H1975 xenografts in nude mice
# Design: species or system BALB/c Nude mice
# Settings: PO; for Relative tumor proliferation rate(%) Day 21: %T/CRTV; for Tumor growth inhibition rate(%) Day 21: %TGITV from tumor volume vs control; for Tumor inhibition rate(%) Day 21: %TGITW from tumor weight vs control; for Tumor volume (mm^3,Mean±SEM) Day 21: QD×21, dose per group; for Relative tumor volume Day 21: RTV = Vt/V0, Mean ± SEM
# Description: BALB/c Nude mice, female, 8-10 weeks old, 18-20g. […] Table 2 Experimental design of therapeutic effect of the drugs in vivo […] NCI-H1975 cells were cultured in RPMI 1640 medium supplemented with 10% FBS and maintained in a 37°C, 5% CO2 humidified incubator. Log-phase NCI-H1975 cells were harvested, resuspended in RPMI 1640 basal medium containing 50% Matrigel, and adjusted to a concentration of 2 × 10^7 cells/mL. Under aseptic conditions, 0.1 mL of the cell suspension was injected subcutaneously into the right flank of mice at a concentration of 2 × 10^6 cells/0.1 mL/mouse. […] The grouping day was designated as Day 0, and administration commenced according to animal body weight. […] Animal body weight and tumor volume were measured twice weekly throughout the experiment. Tumor length and width were measured using a digital caliper, with tumor volume estimated from these measurements. After the final weighing on Day 21, remaining animals were euthanized with CO2. Tumors were weighed, photographed, and the experiment concluded. […] Tumor growth inhibition rate (%TGITV) is calculated as: […] Relative Tumor Volume (RTV) is calculated as Vt/V0, where V0 is the tumor volume at grouping and Vt is the tumor volume at each measurement. Relative Tumor Growth Rate (%T/CRTV) is calculated as TRTV/CRTV × 100%, where TRTV is the RTV of the treatment group and CRTV is the RTV of the negative control group. Tumor growth inhibition rate (%TGITW) is calculated as: ([…] × 100%, where TWc is the average tumor weight in the negative control group and TWT is the average tumor weight in the treatment group. […] Drug-related animal mortality exceeding 20% indicates severe toxicity at that dose. All experimental data in this study are expressed as Mean ± SEM. The evaluation of the combination index (CI) of drugs relies on the following equation: […]), wherein E(A+B) is the inhibition rate of combination drug, EA and EB is the inhibition rate of drug A and drug B respectively. E(A+B) in the equation represents 'measured synergistic effect' and (EA+EB-EA×EB) is 'expected synergistic effect'. CI=0.85-1.15 indicates a mere addition of the effect of two drugs, >1.15 indicates enhancement (or synergy), and <0.85 indicates antagonism. • Combination index of tumor growth inhibition: CAI, 40mg/kg + AZD9291, 1mg/kg: 1.27; […] CAI, 40mg/kg + AZD9291, 1mg/kg: 1.20; […]
# [1] = QD×21, listed as Comparative Example 2
# [2] = QD×21, listed as Comparative Example 3
smiles,measurement,setting,value
"NC(=O)c1nnn(Cc2cc(Cl)c(C(=O)c3ccc(Cl)cc3)c(Cl)c2)c1N [CAI, 5-Amino-1-[3,5-dichloro-4-(4-chlorobenzoyl chloride)benzyl]-1H-1,2,3-triazole-4-benzamide]",Relative tumor proliferation rate(%) Day 21,[1],93.04%
same,Relative tumor proliferation rate(%) Day 21,[2],93.23%
same,Tumor growth inhibition rate(%) Day 21,QD×21,12.99%
same,Tumor growth inhibition rate(%) Day 21,[2],12.33%
same,Tumor inhibition rate(%) Day 21,[1],15.76%
same,Tumor inhibition rate(%) Day 21,[2],7.06%
same,"Tumor volume (mm^3,Mean±SEM) Day 21",listed as Comparative Example 2,1536.24 ±222.57 mm^3
same,"Tumor volume (mm^3,Mean±SEM) Day 21",listed as Comparative Example 3,1547.91 ±221.67 mm^3
same,"Tumor weight (g,Mean±SEM) Day 21",[1],1.384 ± 0.266 g
same,"Tumor weight (g,Mean±SEM) Day 21",[2],1.527 ± 0.257 g
same,Relative tumor volume Day 21,[1],10.03 +1.27
same,Relative tumor volume Day 21,[2],10.05 ±1.30

# Reference: patent publication EP4717275A1, “ANTI-LUNG CANCER COMBINED DRUG AND USE THEREOF” (Gunagdong Yinzhu Pharmaceutical Technology Co., Ltd, priority 2023, dated 2024)
